# Patent publication US6335021B1, “Composition for controlling mood disorders in healthy individuals” (Sigma-Tau HealthScience S.p.A., priority 1997, dated 2002)
# System: subjects suffering from dysthymic disorders
# Assay: Clinical trial of acetyl L-carnitine in patients with mood disorders classifiable as dysthymia (rating scales, alcohol intake, libido, safety)
# Type: in vivo, human
# Conditions: for Hamilton Depression Rating Scale (HDRS): basal 13.9 ± 5.3; for Hamilton Anxiety Rating Scale (HARS): basal 18.6 ± 3.8; for Global Functional (or Social Adaptation) Rating (GFR): basal 63.4 ± 6.6; for alcohol-free days: baseline 6±2
# Text: The selection of the patients for this trial consisted in a selection by exclusion, in which the medical history criterion was of paramount importance, with exclusion of all patients presenting episodes of major depression and cyclothymic manifestations classifiable as such on the basis of the DMS criteria.
# Subjects were therefore recruited whose mood disorders had been dominated by dysphoric manifestations for at least 4 years, classifiable as dysthymia (DMS IV) and a depressive, irritable, cyclothymic personality or temperament on the basis of DMS IV and AXIS II. A total of 20 patients were selected, 12 males and 8 females, matching up to the above-mentioned criteria, and with a mean age of 26±2 years. Six patients (males) also complained of diminished libido and episodes of impotence, while the 8 female patients complained of loss of libido and anorexia. Eight patients (4 males) reported an increased intake of alcoholic beverages, without clinical complications, in the previous 8 months (mean intake 142±15 g/day) and 6 patients (1 male) reported bulimic episodes resulting in a mean weight gain of 2.1±0.5 kg over the previous 6 months.
# Each patient was recruited into the study after 3 repeated visits, at monthly intervals, for the purposes of ruling out other concomitant pathologies or disorders according to DMS IV and AXIS II involving definite abuse of psychotropic substances. The objective neurological examination, current laboratory tests (SMA plus), ECG. BP and chest X-rays were all within normal limits.
# None of the patients had been treated with SSRI or tricyclic antidepressants during the previous year. In the course of the month preceding the treatment with acetyl L-carnitine all treatments consisting in administration of benzodiazepines during the daytime were discontinued and only the administration of Lorazepam (2.5 mg) at 9 p.m. was allowed for all patients.
# Each patient was administered acetyl L-carnitine 1 g per os twice daily (at breakfast- and lunch-time) for two months.
# During the clinical interviews, at entry into the study, on day 45 of administration of acetyl L-carnitine and on day 90 (one month after the end of the treatment), patients were administered the following standardized rating scales: Hamilton Depression Rating Scale (HDRS), Hamilton Anxiety Rating Scale (HARS), Global Functional (or Social Adaptation) Rating (GFR).
# For the recording of alcohol intake, a self-administered scale was used to record the alcohol-free days as a percentage of the total and the number of daily alcohol intakes, considering the intake of 10 grams as a single intake, in the month preceding treatment, during the treatment months and in the month following acetyl L-carnitine treatment.
# [1] = Day 45 of administration, 1 g per os twice daily
# [2] = Day 90 (one month after the end of treatment)
compound,measurement,setting,value
CC(=O)O[C@H](CC(=O)[O-])C[N+](C)(C)C [acetyl L-carnitine],Hamilton Depression Rating Scale (HDRS),"Day 45 of administration, 1 g per os twice daily, 20 patients",9.1 ± 4.8
same,Hamilton Anxiety Rating Scale (HARS),[1],12.8 ± 4.4
same,Global Functional (or Social Adaptation) Rating (GFR),[1],75.3 ± 7.9
same,Hamilton Depression Rating Scale (HDRS),Day 90 (one month after the end of the two-month treatment),12.8 ± 5.4
same,Hamilton Anxiety Rating Scale (HARS),[2],16.9 ± 5.0
same,Global Functional (or Social Adaptation) Rating (GFR),[2],67.7 ± 6.8
same,symptoms of impotence and diminished libido,"all male patients, 15 days after the start of treatment",disappearance of symptoms of impotence and diminished libido
same,alcohol-free days,"during the two months of treatment, on average, self-administered scale",16±3
same,"changes in laboratory tests, BP and ECG as compared to pre-treatment conditions",end of treatment,no significant changes
same,laboratory tests performed at the end of treatment,"end of two-month treatment, 1 g per os twice daily",normal values
same,alcohol-free days,in the month after treatment,8±2
same,expression of the depressive behavioural component,"subjects suffering from dysthymic disorders, conclusion of the clinical trial",significantly reduces
same,mean number of alcohol intakes (10 grams = a single intake),"under treatment, as against 7.8±1.2",6.1±2.1
